Read-outs that look alike come from different tables or passages of the source.
Tests used:
Assay type in all cases: cell-based
[1] = tested on: S. cerevisiae single-deletion yeast strains; test: High-throughput 96-well screen of AF sensitivity of single-gene knockouts (CFU at start and after 8 hours)
Protocol: To identify genes critical to AF action, the AF sensitivity of single-gene knockouts identified through the common transcriptional analysis were identified. In the first pass-through, 56 testable genes were identified. This set was later expanded to include targets identified through phenotypic analysis and metabolomic profiling, for a total of 84 target genes (Table 2). The initial 56 targets were tested using a rapid high-throughput 96-well assay with AMB and MCZ to identify single-gene knockouts with elevated resistance to AFs (Table 2). Knockouts that were more resistant to at least one of the AFs were tested individually using the 24-well colony forming (CF) assay. Target genes selected after the initial 56 strains were assayed individually using the 24-well CF assay.
The first 56 S. cerevisiae strains were acquired from the deletion library and stored in 96-well plates in replicates of three. To start the assay, the plates were defrosted and 10 μl of stored cells were inoculated into 100 μl of fresh synthetic dextrose complete (SDC) media for 16 hours. These overnight cultures were diluted into a fresh 96-well plate with 100 μl of SDC to achieve an OD600 of approximately 0.2. Colony forming units (CFU) in each well were measured at the start of the assay and after 8 hours of incubation. The AF susceptibility of each strain was compared to that of wildtype. Strains with significant susceptibility differences from wildtype were assayed in 0.5 ml of SDC media using the 24-well plate CF assay described above.

[2] = tested on: S. cerevisiae wildtype and deletion strains
S. cerevisiae = test: Mitochondrial activity by MitoTracker Red fluorescence; conditions: drug added to glucose-incubated (SC, 2% glucose) S. cerevisiae
Protocol: It was next sought to assess the mitochondrial activity of AF-treated fungal cells. Yhe MitoTracker Red dye, which enters the mitochondrial matrix by utilizing the proton motive force and thus labels metabolically active mitochondria in viable cells was used (Arita et al., 2006; Tomas et al., 2011). Exponential phase S. cerevisiae were incubated in glucose-free synthetic complete (SC) media for 30 min and then switched to SC containing 2% glucose or non-fermentable acetate for 1.5 hours.
(§1) Overnight yeast cultures were diluted into the indicated media and grown to an OD600 of 0.2, at which point the AFs were added. Colony forming units (CFU) were measured by plating six serial dilutions onto YPD agar plates. Cells treated with MCZ were washed before serial dilution to stop growth inhibition associated with high concentrations of MCZ. CFU were counted after three days of incubation on agar plates. When indicated, thiourea (Fluka) was added 30 min prior to the addition of AFs. HPF (10 μM) (Invitrogen) and Mito Tracker (1 μM) (Invitrogen) dyes were added to PBS-washed cells at the indicated time points and incubated for 30 min prior to flow cytometry measurements, which were taken on the FACSCalibur (Becton-Dickinson). All experiments described in this section were conducted in 0.5 ml of SDC in 24-well plates incubated at 900 rpm and 37° C. for C. albicans and 30° C. and 300 rpm for S. cerevisiae. TUNEL assays were conducted as previously described (Ribeiro et al., 2006) and are described in detail in the TUNEL section of the Experimental Procedures.

[3] = tested on: C. albicans wildtype and DNA repair mutants; test: Fungicidal killing, CFU assay; conditions: C. albicans rad50/rad50 and rad52/rad52, 3 hours of drug exposure
Protocol: Overnight yeast cultures were diluted into the indicated media and grown to an OD600 of 0.2, at which point the AFs were added. Colony forming units (CFU) were measured by plating six serial dilutions onto YPD agar plates.
as §1

[4] = S. cerevisiae PAB103, SDH2 deletion
[5] = S. cerevisiae PAB107, NDE1 deletion
[6] = S. cerevisiae PAB112, MNE1 deletion
[7] = S. cerevisiae PAB113, FUM1 deletion
[8] = S. cerevisiae PAB114, TPK2 deletion
[9] = S. cerevisiae PAB119, CIT2 deletion
[10] = S. cerevisiae PAB121, SDH1 deletion
[11] = S. cerevisiae PAB122, TPK3 deletion
[12] = S. cerevisiae PAB124, TPK1 deletion
[13] = S. cerevisiae PAB132, CIT3 deletion
[14] = S. cerevisiae PAB135, NDI1 deletion
[15] = S. cerevisiae PAB145, CIT1 deletion

## Clc1ccc(COC(Cn2ccnc2)c2ccc(Cl)cc2Cl)c(Cl)c1 (stereo not drawn) [MCZ, miconazole]
[1]; S. cerevisiae PAB101, WT
  96 Well Screen, AF susceptibility vs wildtype: Normal
[1]; S. cerevisiae PAB102, HSP104 deletion
  96 Well Screen, AF susceptibility vs wildtype: Normal
[1]; [4]
  96 Well Screen, AF susceptibility vs wildtype: Resistant (″Resistant″ or ″Sensitive″ indicate at least a 5-fold CFU difference from wildtype at the final time point)
[1]; S. cerevisiae PAB104, FRE8 deletion
  96 Well Screen, AF susceptibility vs wildtype: Normal
[1]; S. cerevisiae PAB105, CHA4 deletion
  96 Well Screen, AF susceptibility vs wildtype: Normal
[1]; S. cerevisiae PAB106, FMS1 deletion
  96 Well Screen, AF susceptibility vs wildtype: Normal
[1]; [5]
  96 Well Screen, AF susceptibility vs wildtype: Resistant (″Resistant″ or ″Sensitive″ indicate at least a 5-fold CFU difference from wildtype at the final time point)
[1]; S. cerevisiae PAB108, ALD3 deletion
  96 Well Screen, AF susceptibility vs wildtype: Normal
[1]; S. cerevisiae PAB109, GAD1 deletion
  96 Well Screen, AF susceptibility vs wildtype: Normal
[1]; S. cerevisiae PAB110, PGM3 deletion
  96 Well Screen, AF susceptibility vs wildtype: Normal
[1]; S. cerevisiae PAB111, PYK2 deletion
  96 Well Screen, AF susceptibility vs wildtype: Resistant (″Resistant″ or ″Sensitive″ indicate at least a 5-fold CFU difference from wildtype at the final time point)
[1]; [6]
  96 Well Screen, AF susceptibility vs wildtype: Normal
[1]; [7]
  96 Well Screen, AF susceptibility vs wildtype: Resistant (″Resistant″ or ″Sensitive″ indicate at least a 5-fold CFU difference from wildtype at the final time point)
[1]; [8]
  96 Well Screen, AF susceptibility vs wildtype: Normal
[1]; S. cerevisiae PAB115, ATG29 deletion
  96 Well Screen, AF susceptibility vs wildtype: Normal
[1]; S. cerevisiae PAB116, ISU1 deletion
  96 Well Screen, AF susceptibility vs wildtype: Normal
[1]; S. cerevisiae PAB117, CYC7 deletion
  96 Well Screen, AF susceptibility vs wildtype: Normal
[1]; S. cerevisiae PAB118, ARN1 deletion
  96 Well Screen, AF susceptibility vs wildtype: Normal
[1]; [9]
  96 Well Screen, AF susceptibility vs wildtype: Resistant (″Resistant″ or ″Sensitive″ indicate at least a 5-fold CFU difference from wildtype at the final time point)
[1]; S. cerevisiae PAB120, HSP30 deletion
  96 Well Screen, AF susceptibility vs wildtype: Resistant (″Resistant″ or ″Sensitive″ indicate at least a 5-fold CFU difference from wildtype at the final time point)
[1]; [10]
  96 Well Screen, AF susceptibility vs wildtype: Resistant (″Resistant″ or ″Sensitive″ indicate at least a 5-fold CFU difference from wildtype at the final time point)
[1]; [11]
  96 Well Screen, AF susceptibility vs wildtype: Resistant (″Resistant″ or ″Sensitive″ indicate at least a 5-fold CFU difference from wildtype at the final time point)
[1]; S. cerevisiae PAB123, ISU2 deletion
  96 Well Screen, AF susceptibility vs wildtype: Normal
[1]; [12]
  96 Well Screen, AF susceptibility vs wildtype: Normal
[1]; S. cerevisiae PAB125, MID2 deletion
  96 Well Screen, AF susceptibility vs wildtype: Normal
[1]; S. cerevisiae PAB126, SSK1 deletion
  96 Well Screen, AF susceptibility vs wildtype: Normal
[1]; S. cerevisiae PAB127, HSP42 deletion
  96 Well Screen, AF susceptibility vs wildtype: Normal
[1]; S. cerevisiae PAB128, PIG1 deletion
  96 Well Screen, AF susceptibility vs wildtype: Normal
[1]; S. cerevisiae PAB130, UGA1 deletion
  96 Well Screen, AF susceptibility vs wildtype: Normal
[1]; S. cerevisiae PAB131, MTL1 deletion
  96 Well Screen, AF susceptibility vs wildtype: Normal
[1]; [13]
  96 Well Screen, AF susceptibility vs wildtype: Resistant (″Resistant″ or ″Sensitive″ indicate at least a 5-fold CFU difference from wildtype at the final time point)
[1]; S. cerevisiae PAB133, ZWF1 deletion
  96 Well Screen, AF susceptibility vs wildtype: Normal
[1]; S. cerevisiae PAB134, SUM1 deletion
  96 Well Screen, AF susceptibility vs wildtype: Normal
[1]; [14]
  96 Well Screen, AF susceptibility vs wildtype: Normal
[1]; S. cerevisiae PAB136, PGM2 deletion
  96 Well Screen, AF susceptibility vs wildtype: Resistant (″Resistant″ or ″Sensitive″ indicate at least a 5-fold CFU difference from wildtype at the final time point)
[1]; S. cerevisiae PAB137, HFD1 deletion
  96 Well Screen, AF susceptibility vs wildtype: Normal
[1]; S. cerevisiae PAB138, PUF2 deletion
  96 Well Screen, AF susceptibility vs wildtype: Normal
[1]; S. cerevisiae PAB139, TDH1 deletion
  96 Well Screen, AF susceptibility vs wildtype: Normal
[1]; S. cerevisiae PAB140, GUD1 deletion
  96 Well Screen, AF susceptibility vs wildtype: Sensitive (″Resistant″ or ″Sensitive″ indicate at least a 5-fold CFU difference from wildtype at the final time point)
[1]; S. cerevisiae PAB141, ATG15 deletion
  96 Well Screen, AF susceptibility vs wildtype: Normal
[1]; S. cerevisiae PAB142, TDH2 deletion
  96 Well Screen, AF susceptibility vs wildtype: Normal
[1]; S. cerevisiae PAB143, ATP1 deletion
  96 Well Screen, AF susceptibility vs wildtype: Normal
[1]; S. cerevisiae PAB144, UGA2 deletion
  96 Well Screen, AF susceptibility vs wildtype: Normal
[1]; [15]
  96 Well Screen, AF susceptibility vs wildtype: Resistant (″Resistant″ or ″Sensitive″ indicate at least a 5-fold CFU difference from wildtype at the final time point)
[1]; S. cerevisiae PAB146, SOLI deletion
  96 Well Screen, AF susceptibility vs wildtype: Normal
[1]; S. cerevisiae PAB147, PAN6 deletion
  96 Well Screen, AF susceptibility vs wildtype: Normal
[1]; S. cerevisiae PAB148, SOL4 deletion
  96 Well Screen, AF susceptibility vs wildtype: Normal
[1]; S. cerevisiae PAB149, YAK1 deletion
  96 Well Screen, AF susceptibility vs wildtype: Sensitive (″Resistant″ or ″Sensitive″ indicate at least a 5-fold CFU difference from wildtype at the final time point)
[1]; S. cerevisiae PAB150, PBS2 deletion
  96 Well Screen, AF susceptibility vs wildtype: Sensitive (″Resistant″ or ″Sensitive″ indicate at least a 5-fold CFU difference from wildtype at the final time point)
[1]; S. cerevisiae PAB152, GPD1 deletion
  96 Well Screen, AF susceptibility vs wildtype: Sensitive (″Resistant″ or ″Sensitive″ indicate at least a 5-fold CFU difference from wildtype at the final time point)
[1]; S. cerevisiae PAB153, SHO1 deletion
  96 Well Screen, AF susceptibility vs wildtype: Sensitive (″Resistant″ or ″Sensitive″ indicate at least a 5-fold CFU difference from wildtype at the final time point)
[1]; S. cerevisiae PAB154, FET3 deletion
  96 Well Screen, AF susceptibility vs wildtype: Sensitive (″Resistant″ or ″Sensitive″ indicate at least a 5-fold CFU difference from wildtype at the final time point)
[1]; S. cerevisiae PAB155, FBP1 deletion
  96 Well Screen, AF susceptibility vs wildtype: Sensitive (″Resistant″ or ″Sensitive″ indicate at least a 5-fold CFU difference from wildtype at the final time point)
[1]; S. cerevisiae PAB156, COX6 deletion
  96 Well Screen, AF susceptibility vs wildtype: Sensitive (″Resistant″ or ″Sensitive″ indicate at least a 5-fold CFU difference from wildtype at the final time point)
[2]; S. cerevisiae CIT1/CIT2 deletions in cit3 background
  additive resistance on deleting the remaining citrate synthases in the cit3 background: not observed
[2]; [4]
  CFU (24-well colony forming assay), AF susceptibility vs wildtype: Resistant (″Resistant″ or ″Sensitive″ indicate at least a 5-fold CFU difference from wildtype at the final time point)
[2]; [5]
  CFU (24-well colony forming assay), AF susceptibility vs wildtype: Resistant (″Resistant″ or ″Sensitive″ indicate at least a 5-fold CFU difference from wildtype at the final time point)
[2]; [6]
  CFU (24-well colony forming assay), AF susceptibility vs wildtype: Resistant (″Resistant″ or ″Sensitive″ indicate at least a 5-fold CFU difference from wildtype at the final time point)
[2]; [7]
  CFU (24-well colony forming assay), AF susceptibility vs wildtype: Resistant (″Resistant″ or ″Sensitive″ indicate at least a 5-fold CFU difference from wildtype at the final time point)
[2]; [8]
  CFU (24-well colony forming assay), AF susceptibility vs wildtype: Resistant (″Resistant″ or ″Sensitive″ indicate at least a 5-fold CFU difference from wildtype at the final time point)
[2]; [9]
  CFU (24-well colony forming assay), AF susceptibility vs wildtype: Resistant (″Resistant″ or ″Sensitive″ indicate at least a 5-fold CFU difference from wildtype at the final time point)
[2]; [10]
  CFU (24-well colony forming assay), AF susceptibility vs wildtype: Resistant (″Resistant″ or ″Sensitive″ indicate at least a 5-fold CFU difference from wildtype at the final time point)
[2]; [11]
  CFU (24-well colony forming assay), AF susceptibility vs wildtype: Resistant (″Resistant″ or ″Sensitive″ indicate at least a 5-fold CFU difference from wildtype at the final time point)
[2]; [12]
  CFU (24-well colony forming assay), AF susceptibility vs wildtype: Resistant (″Resistant″ or ″Sensitive″ indicate at least a 5-fold CFU difference from wildtype at the final time point)
[2]; [13]
  CFU (24-well colony forming assay), AF susceptibility vs wildtype: Resistant (″Resistant″ or ″Sensitive″ indicate at least a 5-fold CFU difference from wildtype at the final time point)
[2]; [14]
  CFU (24-well colony forming assay), AF susceptibility vs wildtype: Resistant (″Resistant″ or ″Sensitive″ indicate at least a 5-fold CFU difference from wildtype at the final time point)
[2]; [15]
  CFU (24-well colony forming assay), AF susceptibility vs wildtype: Resistant (″Resistant″ or ″Sensitive″ indicate at least a 5-fold CFU difference from wildtype at the final time point)
[2]; S. cerevisiae PAB168, RAS1 deletion
  CFU (24-well colony forming assay), AF susceptibility vs wildtype: Resistant (″Resistant″ or ″Sensitive″ indicate at least a 5-fold CFU difference from wildtype at the final time point)
[2]; S. cerevisiae PAB171, RAS2 deletion
  CFU (24-well colony forming assay), AF susceptibility vs wildtype: Resistant (″Resistant″ or ″Sensitive″ indicate at least a 5-fold CFU difference from wildtype at the final time point)
[2]; S. cerevisiae, 50 mM thiourea for 30 minutes prior to the addition of AF drugs
  reduction of killing at 3 hours by thiourea: ~10 fold
S. cerevisiae
  increase of MitoTracker fluorescence: 70 fold
[3]
  susceptibility of DSBR mutants compared to wildtype: particularly susceptible

— US20150366890A1, “COMPOSITIONS AND METHODS FOR TREATING FUNGAL INFECTIONS” (TRUSTEES OF BOSTON UNIVERSITY, priority 2013, published 2015)
